Data reported in patent US9012611B2, “Use of 3,8,12,14, 17,20-oxo-substituted pregnene glycosides in the preparation of healthcare products, food additives and pharmaceuticals for the inhibition of appetite” (Institute of Materia Medica, Chinese Academy of Sciences, priority 2010, dated 2015).

Tests used:
[1] = Animal test in vivo: average body weight; design: species or system rat; conditions: for Average body weight: positive control 15 mg/kg; for body weight compared with the blank control group (in words): during the administration of the drugs, pure glycosides 50 mg/kg
Protocol: (§1) 6-7 weeks-old female Wistar rat (purchased from Shanghai Laboratory Animal Center of Chinese Academy of Sciences)(weight: 110-150 g) was raised alone in suspended metal cage. After the experimental rat was obtained, it was checked to make sure whether they were abnormal or had obvious disease signs. The rat can freely obtain the drinking-water and feed for rodent (RM1(E)AQC). The feeding cage was controlled to receive 12 h illumination (from 07:00 to 19:00) and to be in a dark environment for 12 h, and the room temperature and relative humidity were controlled to be 21±3° C. and 55±15% respectively and not to deviate the upper and lower limit. The rats were randomly divided into groups depending on the body weight according to random number table to make the average weight in each group are approximately equal. Before the test, the rats were pre-trained suitably for one week (from −7th day to −1st day) during which the consumptions of feed and drinking water were recorded.
(§2) Each group of drug to be tested, positive control group, and blank control group consisted of 5 rats, respectively. The tested drug and positive control drug were mixed with wheaten starch before the administration and formulated to suspension with required doses according to 10 mL/kg of administration volume. The positive control drug was sibutramine hydrochloride and the administration dosage was 15 mg/kg body weight. In the blank control group, only equal amount of starch was used to formulate suspension for administration by […] in a same volume. The administration time is the 1st day, 2nd day and 3rd day. The body weight of the rat, the consumption of the feed (the weight of the feeding hopper) and consumption of the drinking water (bottle weight) were recorded from the −7th day to the 7th day.

female Wistar rat = assay: Animal test in vivo: average food consumption (appetite inhibition); conditions: for Average food consumptions: positive control 15 mg/kg; for average food consumptions compared with the blank control group (in words): during the administration of the drugs, pure glycosides 50 mg/kg
Protocol: as §1, §2

`CO[C@H]1C[C@H](O[C@H]2[C@@H](OC)C[C@H](O[C@H]3CC[C@@]4(C)C(=CC[C@]5(O)[C@@H]4C[C@@H](OC(=O)/C=C(\C)C(C)C)[C@@]4(C)[C@]5(O)CC[C@@]4(O)C(C)=O)C3)O[C@@H]2C)O[C@@H](C)[C@H]1O[C@H]1C[C@H](OC)[C@H](O[C@H]2C[C@@H](OC)[C@@H](O)[C@H](C)O2)[C@@H](C)O1` [Wilfoside C1N, wilfoside C1N] gave an Average body weight ([1]; 1st day (administration day), Table 6, wilfosides 50 mg/kg) of 152 g, an Average body weight ([1]; 2nd day (administration day), Table 6, wilfosides 50 mg/kg) of 146.8 g and an Average body weight ([1]; 3rd day (administration day), Table 6, wilfosides 50 mg/kg) of 141.6 g. For the same compound, the Average body weight ([1]; 4th day (after administration on days 1-3), Table 6, wilfosides 50 mg/kg) was 149.2 g, the Average body weight ([1]; 5th day (after administration on days 1-3), Table 6, wilfosides 50 mg/kg) was 154 g and the Average body weight ([1]; 6th day (after administration on days 1-3), Table 6, wilfosides 50 mg/kg) was 155.2 g. For the same compound, the Average body weight ([1]; 7th day (after administration on days 1-3), Table 6, wilfosides 50 mg/kg) was 157.2 g, the “body weight compared with the blank control group (in words)” value ([1]; crude extract 300 mg/kg) was “no great differences” and the Average body weight ([1]; −1st day (before administration), Table 6, wilfosides 50 mg/kg) was 154 g. For the same compound, the Average body weight ([1]; −2nd day (before administration), Table 6, wilfosides 50 mg/kg) was 151.4 g, the Average body weight ([1]; −3rd day (before administration), Table 6, wilfosides 50 mg/kg) was 148.4 g and the Average body weight ([1]; −4th day (before administration), Table 6, wilfosides 50 mg/kg) was 146.8 g. The Average body weight ([1]; −5th day (before administration), Table 6, wilfosides 50 mg/kg) was 144.4 g, the Average body weight ([1]; −6th day (before administration), Table 6, wilfosides 50 mg/kg) was 142 g and the Average body weight ([1]; −7th day (before administration), Table 6, wilfosides 50 mg/kg) was 140.6 g. For the same compound, the Average food consumptions (female Wistar rat; 1st day (administration day), Table 4, wilfosides 50 mg/kg) was 11.6 g, the Average food consumptions (female Wistar rat; 2nd day (administration day), Table 4, wilfosides 50 mg/kg) was 8.8 g and the Average food consumptions (female Wistar rat; 3rd day (administration day), Table 4, wilfosides 50 mg/kg) was 3.6 g. It also gave an Average food consumptions (female Wistar rat; 4th day (after administration on days 1-3), Table 4, wilfosides 50 mg/kg) of 11.6 g, an Average food consumptions (female Wistar rat; 5th day (after administration on days 1-3), Table 4, wilfosides 50 mg/kg) of 15.6 g and an Average food consumptions (female Wistar rat; 6th day (after administration on days 1-3), Table 4, wilfosides 50 mg/kg) of 13.6 g. For the same compound, the Average food consumptions (female Wistar rat; 7th day (after administration on days 1-3), Table 4, wilfosides 50 mg/kg) was 15.6 g, the “average food consumptions compared with the blank control group (in words)” value (female Wistar rat; crude extract 300 mg/kg) was “greatly different from those in the blank group” and the Average food consumptions (female Wistar rat; −1st day (before administration), Table 4, wilfosides 50 mg/kg) was 13.6 g. It also gave an Average food consumptions (female Wistar rat; −2nd day (before administration), Table 4, wilfosides 50 mg/kg) of 14 g, an Average food consumptions (female Wistar rat; −3rd day (before administration), Table 4, wilfosides 50 mg/kg) of 13.2 g and an Average food consumptions (female Wistar rat; −4th day (before administration), Table 4, wilfosides 50 mg/kg) of 13.2 g. The Average food consumptions (female Wistar rat; −5th day (before administration), Table 4, wilfosides 50 mg/kg) was 14.8 g, the Average food consumptions (female Wistar rat; −6th day (before administration), Table 4, wilfosides 50 mg/kg) was 10.8 g and the Average food consumptions (female Wistar rat; −7th day (before administration), Table 4, wilfosides 50 mg/kg) was 8.4 g.

For `CO[C@H]1C[C@H](O[C@H]2[C@@H](OC)C[C@H](O[C@H]3CC[C@@]4(C)C(=CC[C@]5(O)[C@@H]4C[C@@H](OC(=O)/C=C(\C)C(C)C)[C@@]4(C)[C@]5(O)CC[C@@]4(O)C(C)=O)C3)O[C@@H]2C)O[C@@H](C)[C@H]1O[C@H]1C[C@H](OC)[C@H](O[C@H]2C[C@@H](OC)[C@@H](O[C@@H]3O[C@H](CO)[C@@H](O)[C@H](O)[C@H]3O)[C@H](C)O2)[C@@H](C)O1` [Wilfoside C1G, wilfoside C1G], the Average body weight ([1]; 1st day (administration day), Table 3, crude extract 300 mg/kg, others 50 mg/kg) was 163.6 g, the Average body weight ([1]; 2nd day (administration day), Table 3, crude extract 300 mg/kg, others 50 mg/kg) was 163.2 g and the Average body weight ([1]; 3rd day (administration day), Table 3, crude extract 300 mg/kg, others 50 mg/kg) was 165.2 g. The Average body weight ([1]; 4th day (after administration on days 1-3), Table 3, crude extract 300 mg/kg, others 50 mg/kg) was 166.4 g, the Average body weight ([1]; 5th day (after administration on days 1-3), Table 3, crude extract 300 mg/kg, others 50 mg/kg) was 170.4 g and the Average body weight ([1]; 6th day (after administration on days 1-3), Table 3, crude extract 300 mg/kg, others 50 mg/kg) was 169.6 g. The Average body weight ([1]; 7th day (after administration on days 1-3), Table 3, crude extract 300 mg/kg, others 50 mg/kg) was 174.4 g, the “body weight compared with the blank control group (in words)” value ([1]; crude extract 300 mg/kg) was “no great differences” and the Average body weight ([1]; −1st day (before administration), Table 3, crude extract 300 mg/kg, others 50 mg/kg) was 162.8 g. It also gave an Average body weight ([1]; −2nd day (before administration), Table 3, crude extract 300 mg/kg, others 50 mg/kg) of 157.6 g, an Average body weight ([1]; −3rd day (before administration), Table 3, crude extract 300 mg/kg, others 50 mg/kg) of 155.6 g and an Average body weight ([1]; −4th day (before administration), Table 3, crude extract 300 mg/kg, others 50 mg/kg) of 153.2 g. It also gave an Average body weight ([1]; −5th day (before administration), Table 3, crude extract 300 mg/kg, others 50 mg/kg) of 151.2 g, an Average body weight ([1]; −6th day (before administration), Table 3, crude extract 300 mg/kg, others 50 mg/kg) of 147.6 g and an Average body weight ([1]; −7th day (before administration), Table 3, crude extract 300 mg/kg, others 50 mg/kg) of 145.6 g. The Average food consumptions (female Wistar rat; 1st day (administration day), Table 1, crude extract 300 mg/kg, others 50 mg/kg) was 14.4 g, the Average food consumptions (female Wistar rat; 2nd day (administration day), Table 1, crude extract 300 mg/kg, others 50 mg/kg) was 12.4 g and the Average food consumptions (female Wistar rat; 3rd day (administration day), Table 1, crude extract 300 mg/kg, others 50 mg/kg) was 14.4 g. The Average food consumptions (female Wistar rat; 4th day (after administration on days 1-3), Table 1, crude extract 300 mg/kg, others 50 mg/kg) was 14.8 g, the Average food consumptions (female Wistar rat; 5th day (after administration on days 1-3), Table 1, crude extract 300 mg/kg, others 50 mg/kg) was 17.6 g and the Average food consumptions (female Wistar rat; 6th day (after administration on days 1-3), Table 1, crude extract 300 mg/kg, others 50 mg/kg) was 12.4 g. The Average food consumptions (female Wistar rat; 7th day (after administration on days 1-3), Table 1, crude extract 300 mg/kg, others 50 mg/kg) was 15.2 g, the “average food consumptions compared with the blank control group (in words)” value (female Wistar rat; crude extract 300 mg/kg) was “no great differences” and the Average food consumptions (female Wistar rat; −1st day (before administration), Table 1, crude extract 300 mg/kg, others 50 mg/kg) was 14 g. It also gave an Average food consumptions (female Wistar rat; −2nd day (before administration), Table 1, crude extract 300 mg/kg, others 50 mg/kg) of 13.6 g, an Average food consumptions (female Wistar rat; −3rd day (before administration), Table 1, crude extract 300 mg/kg, others 50 mg/kg) of 14.8 g and an Average food consumptions (female Wistar rat; −4th day (before administration), Table 1, crude extract 300 mg/kg, others 50 mg/kg) of 15.2 g. It also gave an Average food consumptions (female Wistar rat; −5th day (before administration), Table 1, crude extract 300 mg/kg, others 50 mg/kg) of 13.6 g, an Average food consumptions (female Wistar rat; −6th day (before administration), Table 1, crude extract 300 mg/kg, others 50 mg/kg) of 13.6 g and an Average food consumptions (female Wistar rat; −7th day (before administration), Table 1, crude extract 300 mg/kg, others 50 mg/kg) of 13.6 g.
